Usually IC50 stands for the concentration that inhibits the measured activity by half.

Among the data in patent publication US20140323418A1, “SELECTIVE KINASE INHIBITORS” (PORTOLA PHARMACEUTICALS, INC., priority 2011, published 2014) are IC50 values, retold here.

The test concerns the target T1, full length active recombinant SYK enzyme (Homo sapiens, UniProt P43405).
T1 construct: full length active recombinant SYK enzyme (Millipore, Calif.); purchased Millipore
The test is described as follows: Inhibition of Syk tyrosine phosphorylation activity (LANCE TR-FRET kinase assay). The class given is biochemical. The note with it: 1 nM SYK, 550 nM substrate, 100 μM ATP, 1 hour room temperature. On the technique in general: In TR-FRET formats the signal depends on donor and acceptor labels being close together.
Consider `CC(C)[C@@H](Nc1ncc(C(N)=O)c(Nc2ccc3c(ccc[n+]3[O-])c2)n1)C(N)=O` [Example 70, (R)-2-(1-amino-3-methyl-1-oxobutan-2-ylamino)-4-(quinolin-6-ylamino)pyrimidine-5-carboxamide N-oxide], for which the half-maximal inhibitory concentration (IC50) fell in the range of 0.1 to 1 µM.

As for `NC(=O)c1cnc(N[C@@H]2CCCC[C@@H]2N)nc1Nc1cc(-n2nccn2)c(Cl)cc1Cl` [Example 24, 2-((1R,2S)-2-aminocyclohexylamino)-4-(2,4-dichloro-5-(2H-1,2,3-triazol-2-yl)phenylamino)pyrimidine-5-carboxamide], the IC50 was 0.01 to 0.1 µM.

As to `Cn1ccc2c(Nc3nc(NCC4CC4)ncc3C(N)=O)cccc21` [Example 112, 2-(cyclopropylmethylamino)-4-(1-methyl-1H-indol-4-ylamino)pyrimidine-5-carboxamide], the half-inhibitory concentration (IC50) was 0.1 to 1 µM.

As for `[N-]=[N+]=N[C@H]1CCCC[C@H]1Nc1ncc(C(N)=O)c(Nc2cccc(-n3nccn3)c2)n1` [Example 8, 4-(3-(2H-1,2,3-triazol-2-yl)phenylamino)-2-((1R,2S)-2-azidocyclohexylamino)pyrimidine-5-carboxamide], the IC50 fell in the range of 0.1 to 1 µM.

On to `NC(=O)c1cnc(N[C@@H]2CCOC[C@@H]2N)nc1Nc1cccc(Cl)c1` [Example 50, 2-(((3R,4R)-3-aminotetrahydro-2H-pyran-4-yl)amino)-4-((3-chlorophenyl)amino)pyrimidine-5-carboxamide], for which the half-inhibitory concentration (IC50) is 0.01 to 0.1 µM.

Regarding `CCc1c(C)n(C)c2cccc(Nc3nc(N[C@@H]4CCCC[C@@H]4N)ncc3C(N)=O)c12` [Example 101, 2-((1R,2S)-2-aminocyclohexylamino)-4-(3-ethyl-1,2-dimethyl-1H-indol-4-ylamino)pyrimidine-5-carboxamide], the IC50 lay within 0.1 to 1 µM.

Consider `CCN1CCc2c(Nc3nc(N[C@@H](CN)C4CC4)ncc3C(N)=O)cccc21` [Example 99, (R)-2-(2-amino-1-cyclopropylethylamino)-4-(1-ethylindolin-4-ylamino)pyrimidine-5-carboxamide], for which the half-maximal inhibitory concentration (IC50) is 0.01 to 0.1 µM.

`Cc1csc(Nc2nc(N[C@@H](C(N)=O)C(C)C)ncc2C(N)=O)c1` [Example 195, (R)-2-(1-amino-3-methyl-1-oxobutan-2-ylamino)-4-(4-methylthiophen-2-ylamino)pyrimidine-5-carboxamide]: the IC50 was 0.001 to 0.01 µM.
